According to PubChem BioAssay (NCI):
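Dose response: 5 concentrations. Exposure: 48 h. Format: 96-well plates. Endpoint: linear interpolation; highest concentration if not reached. TGI marks complete inhibition of growth.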 Calls of active or inactive are those of the source. No stated cut-off is given here; in the data, active means GI50 below about 0.43 µM; inactive means the rest.

Key:
Assay in all cases: NCI-60 cell line screen, 48 h
786-0 renal = system: 786-0 renal
A549 NSCLC = system: A549 NSCLC
ACHN renal = system: ACHN renal
CAKI-1 renal = system: CAKI-1 renal
CCRF-CEM leukemia = system: CCRF-CEM leukemia
COLO 205 colon = system: COLO 205 colon
DLD-1 colon = system: DLD-1 colon
DMS 114 small cell lung = system: DMS 114 small cell lung
DMS 273 small cell lung = system: DMS 273 small cell lung
EKVX NSCLC = system: EKVX NSCLC
HCC-2998 colon = system: HCC-2998 colon
HCT-15 colon = system: HCT-15 colon
HL-60(TB) leukemia = system: HL-60(TB) leukemia
HOP-62 NSCLC = system: HOP-62 NSCLC
HOP-92 NSCLC = system: HOP-92 NSCLC
HT29 colon = system: HT29 colon
IGROV1 ovarian = system: IGROV1 ovarian
K-562 leukemia = system: K-562 leukemia
KM12 colon = system: KM12 colon
KM20L2 colon = system: KM20L2 colon
LOX IMVI melanoma = system: LOX IMVI melanoma
LXFL 529 NSCLC = system: LXFL 529 NSCLC
M14 melanoma = system: M14 melanoma
MALME-3M melanoma = system: MALME-3M melanoma
MOLT-4 leukemia = system: MOLT-4 leukemia
NCI-H226 lung = system: NCI-H226 lung
NCI-H23 lung = system: NCI-H23 lung
NCI-H460 lung = system: NCI-H460 lung
NCI-H522 lung = system: NCI-H522 lung
NCI/ADR-RES ovarian = system: NCI/ADR-RES ovarian
OVCAR-3 ovarian = system: OVCAR-3 ovarian
OVCAR-4 ovarian = system: OVCAR-4 ovarian
OVCAR-5 ovarian = system: OVCAR-5 ovarian
OVCAR-8 ovarian = system: OVCAR-8 ovarian
RPMI-8226 leukemia = system: RPMI-8226 leukemia
RXF 393 renal = system: RXF 393 renal
RXF-631 renal = system: RXF-631 renal
SF-268 CNS = system: SF-268 CNS
SF-295 CNS = system: SF-295 CNS
SF-539 CNS = system: SF-539 CNS
SK-MEL-2 melanoma = system: SK-MEL-2 melanoma
SK-OV-3 ovarian = system: SK-OV-3 ovarian
SN12C renal = system: SN12C renal
SNB-19 CNS = system: SNB-19 CNS
SNB-75 CNS = system: SNB-75 CNS
SNB-78 CNS = system: SNB-78 CNS
SR leukemia = system: SR leukemia
SW-620 colon = system: SW-620 colon
U251 CNS = system: U251 CNS
UACC-257 melanoma = system: UACC-257 melanoma
UACC-62 melanoma = system: UACC-62 melanoma
UO-31 renal = system: UO-31 renal
XF 498 CNS = system: XF 498 CNS
A498 renal = system: A498 renal
M19-MEL melanoma = system: M19-MEL melanoma

Measured: TGI

CC(C)=C1C(=O)C[C@@]2(C)C[C@H]3OC3(C)CC/C=C(/C)CCC12 (some centres not stated)
49.2 µM: HL-60(TB) leukemia
inactive: 786-0 renal | A549 NSCLC | ACHN renal | CAKI-1 renal | CCRF-CEM leukemia | COLO 205 colon | DLD-1 colon | DMS 114 small cell lung | DMS 273 small cell lung | EKVX NSCLC | HCC-2998 colon | HCT-15 colon | HL-60(TB) leukemia | HOP-62 NSCLC | HOP-92 NSCLC | HT29 colon | IGROV1 ovarian | K-562 leukemia | KM12 colon | KM20L2 colon | LOX IMVI melanoma | LXFL 529 NSCLC | M14 melanoma | MALME-3M melanoma | MOLT-4 leukemia | NCI-H226 lung | NCI-H23 lung | NCI-H460 lung | NCI-H522 lung | OVCAR-3 ovarian | OVCAR-4 ovarian | OVCAR-5 ovarian | OVCAR-8 ovarian | RPMI-8226 leukemia | RXF 393 renal | RXF-631 renal | SF-268 CNS | SF-295 CNS | SF-539 CNS | SK-MEL-2 melanoma | SK-OV-3 ovarian | SN12C renal | SNB-19 CNS | SNB-75 CNS | SNB-78 CNS | SR leukemia | SW-620 colon | U251 CNS | UACC-257 melanoma | UACC-62 melanoma | UO-31 renal | XF 498 CNS
95 µM: NCI/ADR-RES ovarian

CCCc1onc(CCC(=O)N(Cc2ccccc2)Cc2ccccc2)c1CC
not listed: A549 NSCLC | EKVX NSCLC | NCI-H226 lung | NCI/ADR-RES ovarian | OVCAR-8 ovarian | RXF 393 renal | SF-539 CNS | SNB-19 CNS | SNB-75 CNS | SR leukemia | SW-620 colon | UO-31 renal
> 100 µM: all other assays above
